{"source": "patent US20100028406A1", "about": "“TOPICAL DRUG DELIVERY BY IONTOPHORESIS” (UNIVERSITE DE GENEVE, priority 2005, published 2010)", "key": {"[1]": {"experiment": "Iontophoresis across porcine skin in vitro, 3-compartment cells, acetaminophen as electroosmosis marker", "experimental": "Porcine ear skin, which is a well-accepted model for human skin (Dick and Scott, 1992; Sekkat et al., 2002), was used in these studies. Porcine ears were obtained from a local abattoir (Société d'Exploitation d'Abbatage, Annecy, France) a few hours after the sacrifice of the animals. The excised skin was then dermatomed (˜750 μm) on the same day and stored at −20° C. for a maximum of two months.\nIontophoresis was performed using vertical 3-compartment cells (FIG. 2). The skin was placed between two half-cells: the upper half, in contact with the SC, comprised two electrode/donor compartments, while the lower receiver compartment was in contact with the dermis. A flow-through system circulated phosphate-buffered normal saline (PBS: 16.8 mM Na2HPO4, 1.4 mM KH2PO4 and 136.9 mM NaCl; pH 7.4) through the receiver chamber (volume 4.7 mL) at a rate of 3 mL/h. Ag/AgCl electrodes were used throughout the study. The skin was allowed to equilibrate for one hour prior to the iontophoresis experiment. In order to reduce competition from Na^+ ions present in the donor, and thus to increase the permeation of VCV, most experiments were performed using a salt bridge assembly. This strategy consists of physically separating the anodal chamber (Ag electrode immersed in PBS pH 7.4) from the donor compartment (drug solution in contact with the SC) and employing a salt bridge (prepared by filling a 12 cm tubing with a warm aqueous solution of 3% agarose and 0.1 M NaCl and then allowed to cool) to electrically connect the two chambers. […] For control experiments without the salt bridge, the anodal compartment contained 1 mL of 10 mM VCV.HCl in PBS pH 7.4. The cathodal compartment contained PBS pH 7.4 in all the experiments. A constant current of 0.34 mA was applied for 7 hours (equivalent to a current density of 0.5 mA/cm^2).\nAcetaminophen (ACE, 15 mM) was included in the donor solution as a marker for electroosmotic flow. Being a small, polar and neutral molecule, it is transported mainly by convective solvent flow during iontophoresis. Therefore, its flux can be used to determine the contribution of electroosmosis to the total iontophoretic flux,\nwhere JEO represents the contribution of electroosmosis (EO) to delivery, vA→C is the convective solvent flow from the anode to cathode, and CD is the donor concentration of the drug.\nThe experiments were performed in sextuplicate, except for passive delivery (n=3), using the skin of as many different animals as possible. Samples were collected hourly and analyzed by high pressure liquid chromatography (HPLC). The HPLC system consisted of a 600 E Controller pump, an Autosampler Injector 717-plus, an In Line Degasser, and a UV 2487 dual λ Detector (Waters, Saint-Quentin Yvelines, France). The separation was performed on a Nucleosil® 100-5 C18 Nautilus column (L: 125 mm; ID: 4.6 mm; Macherey-Nagel, Hoerdt, France) with a 99:1 mixture of 0.1% trifluoroacetic acid (TFA) in water (pH 2.5): MeCN. The flow rate was 1 mL/min, the temperature was adjusted to 30° C., and 50 μL of sample were injected.\nThe iontophoretic flux (JTOT) of a charged species is considered to be the sum of two separate transport processes—electromigration (JEM) and electroosmosis (JEO), assuming negligible passive skin permeability (Sage Jr., 1995):\nJTOT,VCV=JEM,VCV+JEO,VCV (equation 2)\nBriefly, electromigration occurs as a result of increased molecular transport in the presence of an applied electric field, whereas electroosmosis refers to transport mediated by the bulk solvent flow across the skin (in the anode-to-cathode direction) due to the skin's permselectivity for cations under physiological conditions."}, "[2]": {"experiment": "Aqueous stability of VCV in donor formulations and in PBS pH 7.4", "type": "physicochemical", "experimental": "(§1) The aqueous stability of VCV in the donor formulations was investigated by periodic sampling of solutions (2 and 10 mM in water with 15 mM acetaminophen) over a period of 44 hours. In addition, the impact of an electrical current (0.34 mA) on this stability was examined over the same period. The chemical hydrolysis of VCV was also investigated in the presence of PBS pH 7.4. The cutaneous conversion of VCV to ACV via hydrolytic cleavage of the ester bond was verified as follows. Cells were assembled as for an iontophoresis experiment. A 100 μM solution of VCV in PBS pH 7.4 was placed in all the cell compartments and left in contact with the skin (SC and dermis) for 4 hours. The compartments were assayed for ACV and VCV immediately afterwards."}, "[3]": {"experiment": "pKa and ionization state of ACV and VCV", "type": "physicochemical", "settings": "for ionization state in the donor phase: unbuffered formulations, ACV pH 6.3, VCV pH 5.7"}, "[4]": {"experiment": "Cutaneous conversion of VCV to ACV in contact with skin (SC and dermis)", "type": "in vitro ADME, porcine", "experimental": "as §1"}, "[5]": {"settings": "calculated (Denny, 2003); cited from earlier work"}, "[6]": {"settings": "iontophoresis, rabbit skin; cited from earlier work"}, "[7]": {"settings": "pH 7.4, 25°; cited from earlier work"}, "[8]": {"settings": "human skin, 5% w/w (220 mM) ACV ointment, passive; cited from earlier work"}, "[9]": {"settings": "topical 220 mM ACV formulation, rabbits in vivo; cited from earlier work"}, "[10]": {"settings": "cited from earlier work"}, "[11]": {"settings": "cited from earlier work", "remark": "listed apart in the source"}, "[12]": {"settings": "guinea pig skin, 5% w/w (220 mM) ACV ointment, passive; cited from earlier work"}}, "note": "Where two headings read alike, the source gives them in different places.", "data": [{"compound": "CC(C)[C@H](N)C(=O)OCCOCn1cnc2c(=O)[nH]c(N)nc21", "note": "[VCV, valaciclovir]", "values": [{"measurement": "mechanism of iontophoretic transport across the skin", "setting": "[1]", "result": "almost entirely to electromigration (EM)"}, {"measurement": "average flux Jt=0-3 h", "setting": "[1]; pig, 2 mM", "result": "385±158", "unit": "nmol/cm^2/h"}, {"measurement": "average flux Jt=0-3 h", "setting": "[1]; pig, 10 mM", "result": "479±258", "unit": "nmol/cm^2/h"}, {"measurement": "flux Jt=0-7 h", "setting": "[1]; pig, 10 mM", "result": "510±219", "unit": "nmol/cm^2/h"}, {"measurement": "amount reaching the receptor as fraction of the applied dose", "setting": "[1]; pig, 4 h, 2 mM", "result": 50, "unit": "%"}, {"measurement": "EM contribution to the total flux", "setting": "[1]; pig, 7 h, 10 mM, pH 7.4", "result": 73, "unit": "%"}, {"measurement": "transport number", "setting": "[1]; pig, 7 h, pH 7.4", "result": "~0.03"}, {"measurement": "prodrug converted to ACV", "setting": "[2]; PBS pH 7.4, over 7 hrs", "result": "~12", "unit": "%"}, {"measurement": "VCV converted into ACV", "setting": "[2]; unbuffered aqueous solutions (2 and 10 mM) with acetaminophen, 44 hours, absence of a current", "result": "Less than 1%"}, {"measurement": "extent of degradation of VCV", "setting": "[2]; unbuffered aqueous solutions, presence of a current (0.34 mA), over 7 hours", "result": "~1", "unit": "%"}, {"measurement": "protonated fraction", "setting": "[3]; physiological pH", "result": "~50", "unit": "%"}, {"measurement": "ionization state in the donor phase", "setting": "[3]", "result": "fully protonated"}, {"measurement": "enzymatic conversion after contact with the SC", "setting": "[4]; 100 μM in PBS pH 7.4, 4 hours", "result": "not observed"}, {"measurement": "hydrolysis after contact with the dermis", "setting": "[4]; 100 μM in PBS pH 7.4, 4 hours, receiver (dermal) compartment", "result": "completely hydrolyzed to ACV"}, {"measurement": "calculated log P and log D values", "setting": "[5]", "result": "−0.78"}]}, {"compound": "CC12CCC3C(CC=C4CC(OC(=O)CN)CCC43C)C1CCC2=O", "note": "(centres unmarked) [glycyl ester of DHEA]", "values": [{"measurement": "increase in permeation compared to the parent DHEA", "setting": "[6]", "result": 3, "unit": "fold"}]}, {"compound": "Nc1nc2c(ncn2COCCO)c(=O)[nH]1", "note": "[ACV, acyclovir]", "values": [{"measurement": "aqueous solubility", "setting": "[7]", "result": 1300, "unit": "µg/mL"}, {"measurement": "in vitro flux", "setting": "[8]", "result": 0.24, "unit": "nmol/cm^2/h"}, {"measurement": "donor concentration-normalized flux", "setting": "[1]; pig, 7 h, 2 mM, pH 6.3", "result": 0.0024, "unit": "cm/h"}, {"measurement": "mechanism of iontophoretic transport across the skin", "setting": "[1]; unbuffered formulations, ACV pH 6.3, VCV pH 5.7", "result": "entirely by EO"}, {"measurement": "ionization state in the donor phase", "setting": "[3]", "result": "effectively uncharged"}, {"measurement": "stability in contact with the skin, donor and receptor chambers", "setting": "[4]; 100 μM, 4 hours, SC and dermis", "result": "stable"}, {"measurement": "dermal concentrations (microdialysis)", "setting": "[9]", "result": "below the limit of detection"}, {"measurement": "ionized fraction", "setting": "[10]; pH 3.0", "result": 20, "unit": "%"}, {"measurement": "ionized fraction", "setting": "[10]; pH 7.4", "result": 2, "unit": "%"}, {"measurement": "calculated log P and log D values", "setting": "[5]", "result": "−1.76"}, {"measurement": "donor concentration-normalized flux", "setting": "[11]; human skin, physiological pH, iontophoresis", "result": 0.0027, "unit": "cm/h"}, {"measurement": "epidermal concentrations", "setting": "[11]; iontophoretic administration across human skin", "result": "~80", "unit": "µg/mL"}, {"measurement": "in vitro flux", "setting": "[12]", "result": 0.21, "unit": "nmol/cm^2/h"}]}]}
